The numbers were not newly measured in patent US11708332B2, “Human plasma kallikrein inhibitors” (BioCryst Pharmaceuticals, Inc., priority 2014, dated 2023), which cites them from elsewhere.

For data set [1], the system named is lipopolysaccharide (LPS)- or bacterial-induced sepsis. The settings on record: LPS- or bacterial-induced sepsis in animals.
Data set [2] deals with hereditary angioedema (HAE).
Data set [3] has as its system middle cerebral artery occlusion (MCAO). The settings on record: mouse model of MCAO.

As to H-D-Pro-Phe-Arg-chloromethylketone, in data set [1], the lesions result is reported as “reduce”.
As for `NC(N)=NCCC[C@@H](N)C(=O)N[C@@H](CCCN=C(N)N)C(=O)N1CCC[C@H]1C(=O)N1C[C@H](O)C[C@H]1C(=O)NCC(=O)N[C@@H](Cc1cccs1)C(=O)N[C@@H](CO)C(=O)N1Cc2ccccc2C[C@@H]1C(=O)N1[C@H](C(=O)N[C@@H](CCCN=C(N)N)C(=O)O)C[C@@H]2CCCC[C@@H]21` [Icatibant], the “effectiveness in treating HAE” value in data set [2] (HAE) is recorded as “effective”.
For the molecule ecallantide [DX-88], the “edema in patients with hereditary angioedema (HAE)” value in data set [2] (patients with HAE) is “alleviates edema”.

B1: Cl-inhibitor: "Cl-inhibitor reduced infarct size in a mouse model of middle cerebral artery occlusion (MCAO)" (protein, UniProt P05155 23-500, looked up)
Plasma protease C1 inhibitor: NPNATSSSSQDPESLQDRGEGKVATTVISKMLFVEPILEVSSLPTTNSTTNSATKITANTTDEPTTQPTTEPTTQPTIQPTQPTTQLPTDSPTQPTTGSFCPGPVTLCSDLESHSTEAVLGDALVDFSLKLYHAFSAMKKVETNMAFSPFSIASLLTQVLLGAGENTKTNLESILSYPKDFTCVHQALKGFTTKGVTSVSQIFHSPDLAIRDTFVNASRTLYSSSPRVLSNNSDANLELINTWVAKNTNNKISRLLDSLPSDTRLVLLNAIYLSAKWKTTFDPKKTRMEPFHFKNSVIKVPMMNSKKYPVAHFIDQTLKAKVGQLQLSHNLSLVILVPQNLKHRLEDMEQALSPSVFKAIMEKLEMSKFQPTLLTLPRIKVTTSQDMLSIMEKLEFFDFSYDLNLCGLTEDPDLQVSAMQHQTVLELTETGVEAAAASAISVARTLLVFEVQQPFLFVLWDQQHKFPVFMGRVYDPRA
Consider B1, for which, in data set [3], the infarct size entry is listed as “reduced”.

B2: C1-inhibitor: "a physiological inhibitor (C1-inhibitor)" (protein, UniProt P05155 23-500, looked up)
Plasma protease C1 inhibitor: B1 Plasma protease C1 inhibitor
In the case of B2, the lesions result in data set [1] is “reduce”.
